Laboratory results from DBAASP.
Converted amounts (≈) assume the structure as drawn.

Tests used:
Assay in all cases: ≥ marks a high value that may be exact or a test limit, other limits are often not marked, values filed in µg/mL are converted to µM
[1] = tested on: Candida albicans ATCC 2002
[2] = tested on: Candida albicans ATCC 90028
[3] = tested on: Candida parapsilosis ATCC 22019
[4] = tested on: Enterobacter cloacae ATCC 13047
[5] = tested on: Enterococcus faecalis ATCC 29212
[6] = tested on: Escherichia coli ATCC 25922
Escherichia coli IS117# = tested on: Escherichia coli IS117#
Escherichia coli IS218# = tested on: Escherichia coli IS218#
Escherichia coli IS37# = tested on: Escherichia coli IS37#
[7] = tested on: Klebsiella pneumoniae ATCC 700603
[8] = tested on: Pseudomonas aeruginosa ATCC 27853
[9] = tested on: Pseudomonas aeruginosa CMCCB 1010
[10] = tested on: Pseudomonas aeruginosa IS350#
Shigella dysenteriae = tested on: Shigella dysenteriae
[11] = tested on: Staphylococcus aureus ATCC 25923
[12] = tested on: Enterococcus faecium ATCC 700221
[13] = tested on: Staphylococcus aureus ATCC 33591
[14] = tested on: Bacillus subtilis KCTC 1918
[15] = tested on: Candida albicans TIMM 1768
[16] = tested on: Pseudomonas aeruginosa KCTC 1637
[17] = tested on: Salmonella typhimurium KCTC 1926
[18] = tested on: Staphylococcus epidermidis KCTC 3096
[19] = tested on: Trichosporon beigelii KCTC 7707
[20] = tested on: Escherichia coli BW25113 ΔsbmA
[21] = tested on: Escherichia coli BW25113 ΔwaaG
Escherichia coli BW25113 = tested on: Escherichia coli BW25113

CC[C@H](C)[C@@H]1NC(=O)[C@H](C)NC(=O)[C@@H](NC(=O)[C@H](Cc2ccccc2)NC(=O)[C@@H](NC(=O)[C@@H](NC(=O)[C@@H]2CCCN2C(=O)[C@@H](NC(=O)[C@@H](NC(=O)[C@H](CCCCN)NC(=O)CNC(=O)[C@H](CO)NC(=O)[C@@H](NC(=O)[C@H](CS)NC(=O)[C@H](CCC(=O)O)NC(=O)[C@H](CC(C)C)NC(=O)CNC(=O)[C@@H]2CCCN2C(=O)[C@H](CC(C)C)NC(=O)[C@@H](N)Cc2ccccc2)C(C)C)[C@@H](C)CC)C(C)C)[C@@H](C)O)C(C)C)CSSC[C@@H](C(=O)O)NC(=O)[C@H]([C@@H](C)CC)NC(=O)[C@H](CCCN=C(N)N)NC(=O)[C@H]([C@@H](C)O)NC1=O [FLPGLECVSGKIVPTVFCAITRIC]
MIC [1]: 1.95 µM (≈ 5 µg/mL) | MIC [2]: 3.9 µM (≈ 9.99 µg/mL) | MIC [3]: 3.9 µM (≈ 9.99 µg/mL) | MIC [4]: 3.9 µM (≈ 9.99 µg/mL) | MIC [5]: 3.9 µM (≈ 9.99 µg/mL) | MIC [6]: 0.974 µM (≈ 2.5 µg/mL) | MIC (Escherichia coli IS117#): 3.9 µM (≈ 9.99 µg/mL) | MIC (Escherichia coli IS218#): 7.79 µM (≈ 20 µg/mL) | MIC (Escherichia coli IS37#): 7.79 µM (≈ 20 µg/mL) | MIC [7]: 1.95 µM (≈ 5 µg/mL) | MIC [8]: 7.79 µM (≈ 20 µg/mL) | MIC [9]: 1.95 µM (≈ 5 µg/mL) | MIC [10]: 7.79 µM (≈ 20 µg/mL) | MIC (Shigella dysenteriae): 3.9 µM (≈ 9.99 µg/mL) | MIC [11]: 1.95 µM (≈ 5 µg/mL)

CC[C@H](C)[C@H](NC(=O)[C@H](CCCCN)NC(=O)[C@H](CCCCN)NC(=O)[C@H](CC(C)C)NC(=O)[C@H](CC(C)C)NC(=O)[C@H](CCCCN)NC(=O)[C@H](CCCCN)NC(=O)[C@@H](NC(=O)[C@@H](NC(=O)[C@H](CC(=O)O)NC(=O)[C@H](Cc1ccccc1)NC(=O)[C@H](CC(C)C)NC(=O)CN)C(C)C)[C@@H](C)CC)C(=O)NCC(=O)NCC(=O)N[C@@H](CC(C)C)C(N)=O [GLFDVIKKLLKKIGGL]
MIC [12]: 1.6 µM (≈ 2.79 µg/mL) | MIC [6]: 6.3 µM (≈ 11 µg/mL) | MIC [8]: 12.5 µM (≈ 21.8 µg/mL) | MIC [13]: 3.1 µM (≈ 5.4 µg/mL)

CC(C)C[C@H](NC(=O)[C@H](Cc1ccccc1)NC(=O)[C@H](CCCCN)NC(=O)[C@@H]1CCCN1C(=O)[C@H](CCCCN)NC(=O)[C@H](CCCCN)NC(=O)[C@H](CCCCN)NC(=O)[C@H](CCCCN)NC(=O)[C@H](CCCCN)NC(=O)[C@H](CCCCN)NC(=O)[C@H](Cc1c[nH]c2ccccc12)NC(=O)[C@@H](N)CCCCN)C(N)=O [KWKKKKKKPKFL]
MIC [14]: 6.25 µM (≈ 9.91 µg/mL) | MIC [15]: 25 µM (≈ 39.7 µg/mL) | MIC [16]: 3.12 µM (≈ 4.95 µg/mL) | MIC [17]: 2.21 µM (≈ 3.5 µg/mL) | MIC [18]: 12.5 µM (≈ 19.8 µg/mL) | MIC [19]: 25 µM (≈ 39.7 µg/mL)

CC[C@H](C)[C@H](NC(=O)[C@H](CCCN=C(N)N)NC(=O)[C@@H](N)CCCN=C(N)N)C(=O)N[C@@H](CCCN=C(N)N)C(=O)N1CCC[C@H]1C(=O)N[C@@H](CCCN=C(N)N)C(=O)N1CCC[C@H]1C(=O)N1CCC[C@H]1C(=O)N[C@@H](CCCN=C(N)N)C(=O)N[C@@H](CC(C)C)C(=O)N1CCC[C@H]1C(=O)N[C@@H](CCCN=C(N)N)C(=O)N1CCC[C@H]1C(=O)N[C@@H](CCCN=C(N)N)C(=O)N1CCC[C@H]1C(=O)N[C@@H](CCCN=C(N)N)C(=O)N1CCC[C@H]1C(=O)N[C@@H](CC(C)C)C(=O)N1CCC[C@H]1C(=O)N[C@@H](Cc1ccc(O)cc1)C(=O)N1CCC[C@H]1C(=O)N[C@@H](CCCN=C(N)N)C(=O)N1CCC[C@H]1C(=O)O [RRIRPRPPRLPRPRPRPLPYPRP]
MIC [6]: 1 µM (≈ 2.9 µg/mL) | MIC [20]: 8 µM (≈ 23.2 µg/mL) | MIC [21]: 0.5 µM (≈ 1.45 µg/mL) | MIC (Escherichia coli BW25113): 1 µM (≈ 2.9 µg/mL)
